Data taken from patent US11897796B2, “Compositions of heterocyclic compounds and uses as sulfidogenesis inhibitors” (ChampionX USA Inc., priority 2020, dated 2024).
Read-outs that look alike come from different tables or passages of the source.

Columns and labels:
[1] = system: sulfate reducing microorganisms
Experimental: Sample preparation and test conditions. The sulfidogenesis inhibitor MBO was tested using a pressurized bioreactor system. Two sand packed bioreactors were used to establish a sour population of sulfate reducing microorganisms with a seawater mixture for one month. The pressurized bioreactors maintained a flow rate of 0.05 mL/minute and were held at a temperature of 30° C. and a pressure of 1000 psig. Once both bioreactors contained sufficient sulfide in the effluent, one bioreactor remained untreated (control bioreactor) and the other bioreactor was dosed with MBO (test bioreactor) throughout the remaining four months of the study. The sulfide levels were measured in the control and test bioreactors weekly. MBO was dosed continuously in increasing increments at 25, 50, 100, and 150 ppm for roughly five weeks of the experiment. Next, a 4-hour batch treatment of MBO at 500 ppm was also tested twice followed by a low continuous dosage of MBO at 80 ppm and 100 ppm, respectively. The pH of the system was then decreased from 8.5 to 7.5 and then 7.5 to 6.5 to observe the effect of pH on MBO's efficacy at inhibiting sulfidogenesis. Once the pH of the bioreactor had stabilized at 6.5, MBO was dosed continuously in decreasing increments at 150 ppm, 100 ppm, 80 ppm and 50 ppm. At the end of the study, the dosing of MBO was ceased to monitor when sulfide levels would return in the test bioreactor.
The pH measured in the system and the dosage of MBO throughout the study is recorded as well.

[2] = system: sulfur-utilizing prokaryotes; settings: after 8 weeks; for Average reduction in biogenic sulfide: compared to untreated; for Average Sulfide: field water, 37° C.
Experimental: Sample Preparation and Test Conditions. Field water samples were collected and shipped under anoxic conditions. Prior to setting up the bottle test, the water was sparged with carbon dioxide in a nitrogen environment overnight to remove the existing hydrogen sulfide. The water sample was then supplemented with 50 mg/L acetate, 5 mg/L propionate, and 5 mg/L butyrate and trace elements and vitamins. Fluids (100 mL) were aliquoted into 125 mL glass serum bottles containing a carbon steel 1018 ball bearing. Triplicate experiments were performed. Three bottles were left untreated and three bottles were treated each with 50 ppm and 80 ppm of the desired chemistry. Samples were incubated at 37° C. for 8 weeks.
(§1) A sulfide test kit (Code 4456-01, available from LaMotte) was used to test the efficacy of 3,3′-methylenebis[5-methyloxazolidine]

[3] = system: sulfur-utilizing prokaryotes; settings: after 6 weeks; for Average Sulfide: Source 2 field water, 37° C.
Experimental: Sample Preparation and Test Conditions. Field water samples were treated with additional organic acids (e.g., Source 2) and were collected and shipped under anoxic conditions. Prior to setting up the bottle test, the water was sparged with carbon dioxide in a nitrogen environment overnight to remove the existing hydrogen sulfide. The water sample was then supplemented with 1 mM acetate, trace elements, and vitamins. Fluids (100 mL) were aliquoted into 125 mL glass serum bottles containing a carbon steel 1018 ball bearing. Triplicate experiments were performed. Three bottles were left untreated and three bottles were treated each at a concentration of 80 ppm, 120 ppm, and 150 ppm of the desired chemistry based on the total weight of the sample. Samples were incubated at 37° C. for 6 weeks.
as §1

CC1CN(CN2COC(C)C2)CO1 (stereo not drawn) [MBO, 3,3′-methylenebis[5-methyloxazolidine]]
Test Bioreactor Sulfide ([1]; Day 21 (as printed, between days 30 and 35), dosage of MBO 25 ppm, pH 8.5): 44.6 mg/L
Test Bioreactor Sulfide ([1]; Day 30, dosage of MBO 25 ppm, pH 8.5): 34.9 mg/L
Test Bioreactor Sulfide ([1]; Day 35, dosage of MBO 25 ppm, pH 8.5): 45.7 mg/L
Test Bioreactor Sulfide ([1]; Day 37, dosage of MBO 50 ppm, pH 8.5): 46.2 mg/L
Test Bioreactor Sulfide ([1]; Day 38, dosage of MBO 50 ppm, pH 8.5): 48.7 mg/L
Test Bioreactor Sulfide ([1]; Day 42, dosage of MBO 50 ppm, pH 8.5): 44.8 mg/L
Test Bioreactor Sulfide ([1]; Day 44, dosage of MBO 100 ppm, pH 8.5): 44.2 mg/L
Test Bioreactor Sulfide ([1]; Day 45, dosage of MBO 100 ppm, pH 8.5): 41.0 mg/L
Test Bioreactor Sulfide ([1]; Day 46, dosage of MBO 100 ppm, pH 8.5): 10.3 mg/L
Test Bioreactor Sulfide ([1]; Day 49, dosage of MBO 100 ppm, pH 8.5): 3.1 mg/L
Test Bioreactor Sulfide ([1]; Day 51, dosage of MBO 100 ppm, pH 8.5): 0.7 mg/L
Test Bioreactor Sulfide ([1]; Day 52, dosage of MBO 100 ppm, pH 8.5): 0.5 mg/L
Test Bioreactor Sulfide ([1]; Day 53, dosage of MBO 100 ppm, pH 8.5): 3.1 mg/L
Test Bioreactor Sulfide ([1]; Day 56, dosage of MBO 100 ppm, pH 8.5): 5.3 mg/L
Test Bioreactor Sulfide ([1]; Day 58, dosage of MBO 150 ppm, pH 8.5): 4.9 mg/L
Test Bioreactor Sulfide ([1]; Day 60, dosage of MBO 150 ppm, pH 8.5): 1.0 mg/L
Test Bioreactor Sulfide ([1]; Day 63, dosage of MBO 150 ppm, pH 8.5): 21.5 mg/L
Test Bioreactor Sulfide ([1]; Day 65, dosage of MBO 150 ppm, pH 8.5): 19.9 mg/L
Test Bioreactor Sulfide ([1]; Day 67, dosage of MBO 150 ppm, pH 8.5): 25.7 mg/L
Test Bioreactor Sulfide ([1]; Day 70, dosage of MBO 150 ppm, pH 8.5): 29.1 mg/L
Test Bioreactor Sulfide ([1]; Day 72, dosage of MBO 0 ppm (dosing paused after 150 ppm), pH 8.5): 29.4 mg/L
Test Bioreactor Sulfide ([1]; Day 74, dosage of MBO 0 ppm (dosing paused after 150 ppm), pH 8.5): 21.9 mg/L
Test Bioreactor Sulfide ([1]; Day 77, dosage of MBO 0 ppm (dosing paused after 150 ppm), pH 8.5): 32.0 mg/L
Test Bioreactor Sulfide ([1]; Day 78, dosage of MBO 500 ppm (4 hours batch) + 80 ppm, pH 8.5): 37.2 mg/L
Test Bioreactor Sulfide ([1]; Day 79, dosage of MBO 80 ppm after 500 ppm batch, pH 8.5): 37.8 mg/L
Test Bioreactor Sulfide ([1]; Day 80, dosage of MBO 80 ppm after 500 ppm batch, pH 8.5): 23.0 mg/L
Test Bioreactor Sulfide ([1]; Day 81, dosage of MBO 80 ppm after 500 ppm batch, pH 8.5): 27.7 mg/L
Test Bioreactor Sulfide ([1]; Day 84, dosage of MBO 80 ppm after 500 ppm batch, pH 8.5): 31.8 mg/L
Test Bioreactor Sulfide ([1]; Day 86, dosage of MBO 80 ppm after 500 ppm batch, pH 3.5 (so in the source)): 32.0 mg/L
Test Bioreactor Sulfide ([1]; Day 88, dosage of MBO 0 ppm (dosing paused after 80 ppm), pH 8.5): 29.1 mg/L
Test Bioreactor Sulfide ([1]; Day 91, dosage of MBO 0 ppm (dosing paused after 80 ppm), pH 8.5): 25.6 mg/L
Test Bioreactor Sulfide ([1]; Day 93, dosage of MBO 500 ppm (4 hours batch) + 100 ppm, pH 8.5): 30.7 mg/L
Test Bioreactor Sulfide ([1]; Day 94, dosage of MBO 100 ppm after 500 ppm batch, pH 8.5): 24.1 mg/L
Test Bioreactor Sulfide ([1]; Day 95, dosage of MBO 100 ppm after 500 ppm batch, pH 8.5): 24.2 mg/L
Test Bioreactor Sulfide ([1]; Day 98, dosage of MBO 100 ppm after 500 ppm batch, pH 8.5): 20.3 mg/L
Test Bioreactor Sulfide ([1]; Day 100, dosage of MBO 100 ppm, pH 7.5): 20.1 mg/L
Test Bioreactor Sulfide ([1]; Day 101, dosage of MBO 100 ppm, pH 7.5): 9.9 mg/L
Test Bioreactor Sulfide ([1]; Day 102, dosage of MBO 100 ppm, pH 7.5): 16.6 mg/L
Test Bioreactor Sulfide ([1]; Day 105, dosage of MBO 100 ppm, pH 7.5): 22.5 mg/L
Test Bioreactor Sulfide ([1]; Day 107, dosage of MBO 100 ppm, pH 6.5): 20.2 mg/L
Test Bioreactor Sulfide ([1]; Day 108, dosage of MBO 100 ppm, pH 6.5): 23.4 mg/L
Test Bioreactor Sulfide ([1]; Day 109, dosage of MBO 100 ppm, pH 6.5): 20.9 mg/L
Test Bioreactor Sulfide ([1]; Day 112, dosage of MBO 100 ppm, pH 6.5): 18.2 mg/L
Test Bioreactor Sulfide ([1]; Day 114, dosage of MBO 150 ppm, pH 6.5): 16.3 mg/L
Test Bioreactor Sulfide ([1]; Day 115, dosage of MBO 150 ppm, pH 6.5): 7.7 mg/L
Test Bioreactor Sulfide ([1]; Day 116, dosage of MBO 150 ppm, pH 6.5): 2.9 mg/L
Test Bioreactor Sulfide ([1]; Day 119, dosage of MBO 150 ppm, pH 6.5): 0.7 mg/L
Test Bioreactor Sulfide ([1]; Day 121, dosage of MBO 150 ppm, pH 6.5): 0.5 mg/L
Test Bioreactor Sulfide ([1]; Day 122, dosage of MBO 150 ppm, pH 6.5): 0.5 mg/L
Test Bioreactor Sulfide ([1]; Day 123, dosage of MBO 150 ppm, pH 6.5): 0.5 mg/L
Test Bioreactor Sulfide ([1]; Day 126, dosage of MBO 150 ppm, pH 6.5): 0.5 mg/L
Test Bioreactor Sulfide ([1]; Day 128, dosage of MBO 100 ppm (decreasing increments), pH 6.5): 0.5 mg/L
Test Bioreactor Sulfide ([1]; Day 129, dosage of MBO 100 ppm (decreasing increments), pH 6.5): 0.5 mg/L
Test Bioreactor Sulfide ([1]; Day 130, dosage of MBO 100 ppm (decreasing increments), pH 6.5): 0.5 mg/L
Test Bioreactor Sulfide ([1]; Day 133, dosage of MBO 100 ppm (decreasing increments), pH 6.5): 0.5 mg/L
Test Bioreactor Sulfide ([1]; Day 135, dosage of MBO 80 ppm (decreasing increments), pH 6.5): 0.5 mg/L
Test Bioreactor Sulfide ([1]; Day 136, dosage of MBO 80 ppm (decreasing increments), pH 6.5): 0.5 mg/L
Test Bioreactor Sulfide ([1]; Day 137, dosage of MBO 80 ppm (decreasing increments), pH 6.5): 0.5 mg/L
Test Bioreactor Sulfide ([1]; Day 140, dosage of MBO 80 ppm (decreasing increments), pH 6.5): 0.5 mg/L
Test Bioreactor Sulfide ([1]; Day 141, dosage of MBO 50 ppm (decreasing increments), pH 6.5): 0.5 mg/L
Test Bioreactor Sulfide ([1]; Day 144, dosage of MBO 50 ppm (decreasing increments), pH 6.5): 0.5 mg/L
Test Bioreactor Sulfide ([1]; Day 147, dosage of MBO 50 ppm (decreasing increments), pH 6.5): 0.5 mg/L
Test Bioreactor Sulfide ([1]; Day 150, dosage of MBO 0 ppm (dosing ceased at end of study), pH 6.5): 0.5 mg/L
Test Bioreactor Sulfide ([1]; Day 151, dosage of MBO 0 ppm (dosing ceased at end of study), pH 6.5): 0.5 mg/L
Test Bioreactor Sulfide ([1]; Day 154, dosage of MBO 0 ppm (dosing ceased at end of study), pH 6.5): 0.5 mg/L
sulfide levels in the test bioreactor, lowest reached ([1]; dosage of MBO at 100 ppm, initial decrease, sulfide levels started to increase again afterwards): 0.5 mg/L
sulfide levels in the test bioreactor ([1]; pH 6.5, dosing MBO at 150 ppm, stayed throughout remainder of study through decreasing dosages): 0.5 mg/L
effect on sulfide levels in the test bioreactor ([1]; two high batch dosages of MBO at 500 ppm followed by low continuous dosage at 80 and 100 ppm): did not further decrease sulfide levels
Average reduction in biogenic sulfide ([2]; MBO 50 ppm): 37.03%
Average Sulfide ([2]; MBO 50 ppm): 4.64 ppm
Average reduction in biogenic sulfide ([2]; MBO 80 ppm): 93.81%
Average Sulfide ([2]; MBO 80 ppm): 0.46 ppm
Average Sulfide ([3]; MBO 80 ppm): 0.09 ppm
Average reduction in biogenic sulfide ([3]; MBO 80 ppm): 98.4%
Average Sulfide ([3]; MBO 120 ppm): 0.09 ppm
Average reduction in biogenic sulfide ([3]; MBO 120 ppm): 98.4%
Average Sulfide ([3]; MBO 150 ppm): 0.13 ppm
Average reduction in biogenic sulfide ([3]; MBO 150 ppm): 97.8%
